Laboratory results: US20200390753A1, “COMBINATION THERAPY USING ENANTIOPURE, OXY-SUBSTITUTED, DEUTERIUM-ENRICHED 5-(BENZYL)-5-DEUTERO-THIAZOLIDINE-2,4-DIONES FOR TREATMENT OF MEDICAL DISORDERS” (priority 2015, published 2020)
Like-named read-outs stand apart in the source and are kept apart here.

Assays:
[1] = for k RS: enantiomerization rate constant h-R-pio to h-S-pio / k SR: enantiomerization rate constant h-S-pio to h-R-pio: 5 M (sic)
[2] = for k RS: enantiomerization rate constant h-R-pio to h-S-pio / k SR: enantiomerization rate constant h-S-pio to h-R-pio: C57BL/6, mouse, 5 M (sic)
C2C12 cells = assay: Mitochondrial respiration (mitochondrial stress test, maximal respiration) in C2C12 cells; format: cell-based; details: 30 µM for 15, 30, or 90 min, vs vehicle-treated cells; 10 mM sodium pyruvate
Description: […]. […] […].

db/db mice = assay: db/db mouse model of Type II diabetes, 10-day daily oral dosing; format: in vivo; details: oral daily 10 days, h-rac-pio 30 mg/kg; for decrease of cytokines IL-1p, IL-6, and TNF-α / decrease of serum amyloid A / effect on non-essential fatty acids (decrease compared with h-rac-pio) / effect on non-fasted blood glucose: d-R-pio 20 mg/kg; for effect on adiponectin / effect on non-essential fatty acids (decrease compared with h-rac-pio) / effect on non-fasted blood glucose: d-S-pio 20 mg/kg
Experimental: Quantitative results were analyzed by statistical methods using, as appropriate, one- or two-way ANOVA or Kruskal-Wallis tests for differences followed by Sidak's, Dunnett's, or Dunn's post-test to determine differences vs. vehicle-treated control animals. All graphs were generated with GraphPad Prism version 6.0.2 (GraphPad Software, Inc., La Jolla, Calif.).

[3] = Body weight gain in male C57BL/6J mice on a standard diet; format: in vivo; details: twice daily oral gavage 11 days; overall daily dose h-rac-pio 30 mg/kg, d-S-pio 15 mg/kg, d-R-pio 15 mg/kg
Experimental: Male C57BL/6J mice (about 28 g body weight) were acclimated singly-housed for one week to a reverse light/dark cycle with free access to water and standard maintenance diet. Animals were then handled daily for one week followed by another 7 days of twice daily dosing with vehicle (0.5% methylcellulose in water) by oral gavage. […] Body weights were measured twice daily, prior to each dosing, to adjust individual dosing volumes to actual body weights.

[4] = target: T1, human recombinant monoamine oxidase B (Homo sapiens, UniProt P27338); assay: Monoamine oxidase B (MAO-B) inhibition, luminescence; format: biochemical
T1 sequence (P27338 1-520): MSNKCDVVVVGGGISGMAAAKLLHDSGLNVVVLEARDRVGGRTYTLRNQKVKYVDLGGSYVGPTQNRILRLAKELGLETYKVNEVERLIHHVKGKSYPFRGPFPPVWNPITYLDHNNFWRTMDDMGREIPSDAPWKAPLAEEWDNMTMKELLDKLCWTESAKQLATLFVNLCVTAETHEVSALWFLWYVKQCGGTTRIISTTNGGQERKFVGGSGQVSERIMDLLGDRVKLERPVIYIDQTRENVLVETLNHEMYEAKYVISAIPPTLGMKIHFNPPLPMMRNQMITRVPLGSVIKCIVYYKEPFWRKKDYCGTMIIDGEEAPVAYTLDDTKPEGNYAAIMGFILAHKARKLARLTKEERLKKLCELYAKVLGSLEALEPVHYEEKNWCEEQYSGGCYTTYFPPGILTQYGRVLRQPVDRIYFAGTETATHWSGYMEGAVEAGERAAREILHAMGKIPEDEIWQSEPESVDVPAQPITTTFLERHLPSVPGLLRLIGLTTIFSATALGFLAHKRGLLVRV
Experimental: The mixtures were incubated at 22° C. for 5 min. Substrate (D-luciferin derivative) was added, and then the mixture was incubated at 37° C. for 60 min. The reaction was stopped by addition of the detection reagent containing luciferase. Luminescence was read after standing for 60 min at room temperature.
Results were expressed as a percentage of the luminescence of the control (enzyme+substrate). IC50 values were obtained by fitting experimental data (mean % luminescence as function of concentration) to the Hill equation with variable slope using non-linear regression analysis.

SMILES | effect on maximal respiration (oxygen consumption rate) (C2C12 cells) | decrease of cytokines IL-1p, IL-6, and TNF-α (db/db mice; vs vehicle) | decrease of serum amyloid A (db/db mice; vs vehicle) | effect on adiponectin (db/db mice; vs vehicle) | percent body weight difference versus day 1, compared to vehicle [3] | k RS: enantiomerization rate constant h-R-pio to h-S-pio ([1]; human) [h⁻¹] | k SR: enantiomerization rate constant h-S-pio to h-R-pio ([1]; human) [h⁻¹] | k RS: enantiomerization rate constant h-R-pio to h-S-pio [2] [h⁻¹] | k SR: enantiomerization rate constant h-S-pio to h-R-pio [2] [h⁻¹] | effect on non-essential fatty acids (decrease compared with h-rac-pio) (db/db mice) | effect on non-fasted blood glucose (db/db mice) | further results
[2H]C1(Cc2ccc(OCCc3ccc(CC)cn3)cc2)SC(=O)NC1=O (racemic) [d-rac-pio] |  |  |  |  |  |  |  |  |  |  |  | t1/2 of h-R-pio (RS*) from averaged kRS ([1]; human, plasma): 96 min; t1/2 of h-S-pio (SR*) from averaged kSR ([1]; human, plasma): 96 min; t1/2 of d-S-pio (k=kDSR+kDSS) ([2]; mouse, plasma): 36 min; t1/2 of h-R-pio (RS*) from averaged kRS ([2]; mouse, plasma): 54 min; t1/2 of h-S-pio (SR*) from averaged kSR ([2]; mouse, plasma): 45 min
CCc1ccc(CCOc2ccc(CC3SC(=O)NC3=O)cc2)nc1 (racemic) [h-rac-pio, rac-5-({p-[2-(5-Ethyl-2-pyridyl)ethoxy]phenyl}methyl)-1,3-thiazolidine-2,4-dione, reference compound] | inhibited maximal respiration | trending | statistically significant | significantly increased | statistically significant increase |  |  |  |  |  |  | effect on insulin (db/db mice; vs vehicle): significantly decreased
CCc1ccc(CCOc2ccc(C[C@@H]3SC(=O)NC3=O)cc2)nc1 [h-S-pio] |  |  |  |  |  | 0.434 | 0.427 | 0.792 | 0.979 |  |  | 
[2H][C@]1(Cc2ccc(OCCc3ccc(CC)cn3)cc2)SC(=O)NC1=O [d-R-pio, (R)-5-({p-[2-(5-Ethyl-2-pyridyl)ethoxy]phenyl}methyl)-(5-^2H)-1,3-thiazolidine-2,4-dione] | inhibited maximal respiration | trending | statistically significant |  | did not increase |  |  |  |  | a similar trend was observed | decreased non-fasted blood glucose to approximately the same extent as h-rac-pio | difference in inhibition efficacy between d-R-pio and d-S-pio [4]: greater than 5 fold
[2H][C@@]1(Cc2ccc(OCCc3ccc(CC)cn3)cc2)SC(=O)NC1=O [d-S-pio, (S)-5-({p-[2-(5-Ethyl-2-pyridyl)ethoxy]phenyl}methyl)-(5-^2H)-1,3-thiazolidine-2,4-dione] | no significant measurable effect |  |  | significantly increased | statistically significant increase |  |  |  |  | a similar trend was observed | decreased non-fasted blood glucose to approximately the same extent as h-rac-pio | half-life of d-S-pio compared with h-S-pio ([1]; plasma): approximately the same as the half-life for h-S-pio
CCc1ccc(CCOc2ccc(C[C@H]3SC(=O)NC3=O)cc2)nc1 [h-R-pio] |  |  |  |  |  | 0.447 | 0.439 | 0.694 | 0.867 |  |  | 
